Laboratory results reported in patent US12365658B2, “Benzothia(di)azepine compounds and their use as bile acid modulators” (Albireo AB, priority 2021, dated 2025).

Assays:
[1] = Bidirectional permeability assay (Caco-2 cells); type: in vitro ADME; settings: human, 10 μM in FaSSIF buffer; for Papp A→B at 120 min, 10 μM: Caco-2, pH 7.4, absorptive direction (A2B); for Papp B→A at 120 min, 10 μM: Caco-2, pH 7.4, secretory direction (B2A)
Protocol: Bidirectional Permeability Assay (Caco-2 Cells)
Caco-2 cells (Evotec) were seeded at a density of 70,000 cells/well in Millicell® 24-well cell culture insert plates and maintained in an incubator (37° C., 5% CO2, 95% RH) for 21 days with media change on alternate days.
Stock solutions (10 mM) of the test compounds, atenolol (low permeability marker), propranolol (high permeability marker) and digoxin (substrate for P-gp transport pathway) were prepared in dimethylsulfoxide (DMSO). An intermediate stock solution (1 mM) was prepared by diluting 10 μL of 10 mM master stock solution with 90 μL of neat DMSO. A working stock solution (10 μM) was prepared by diluting 50 μL of 1 mM with 4950 μL of FaSSIF buffer. Post addition of compounds to the FaSSIF, samples were subjected to sonication for 2 hours, and centrifuged at 4000 RPM for 30 minutes at 37° C. The 4 mL of resultant supernatant was directly used in the assay. The final DMSO concentration in the transport experiments was 1%.
On the day of assay, Caco-2 monolayers were washed twice with transport buffer (HBSS, pH 7.4) and pre-incubated for 30 min (37° C., 5% CO2, 95% RH) in an incubator. The electrical resistance of the monolayers was measured with a Millicell®-ERS system. Monolayers with trans-epithelial electrical resistance (TEER) values greater than 350 ohm·cm^2 were selected for the assay.
The assay was conducted in absorptive direction (A2B) and secretory (B2A) directions. Transport experiments were initiated by addition of transport assay buffer (FaSSIF buffer prepared in HBSS) consisting of compounds to the donor compartment (apical chamber A-B; basolateral chamber B-A) in duplicate (n=2) wells. Drug free HBSS buffer (pH 7.4) containing 1% bovine serum albumin (BSA) was introduced to the receiver (A-B-basolateral; B-A-Apical) compartments. The volumes of apical and basolateral compartments were 0.4 and 0.8 mL, respectively. After adding dosing solution, plates were incubated in an incubator for 120 minutes at 37° C. After 120 minutes, donor and receiver samples were collected and matrix matched (1:1, 30 μL study sample+30 μL blank buffer) with the opposite buffer. Dosing samples matrix matched (1:1, 30 μL study sample+30 μL blank buffer) with the opposite buffer. Samples were processed by adding acetonitrile containing internal standard (60 μL study sample+200 μL acetonitrile containing internal standard-Tolbutamide, 500 ng/mL). Samples were vortexed and centrifuged at 4000 rpm for 10 minutes. The obtained supernatant (100 μL) was diluted with 100 μL of water and transferred to fresh 96 well plates. The concentration of compounds in the samples was analyzed by liquid chromatography tandem mass spectrometry (LC-MS/MS) method using discovery grade bio-analytical method, as applicable.
The mean apparent permeability (Papp, ×10^−6 cm/sec) of the test compounds, atenolol, propranolol and digoxin were calculated as follows:
where dq/dt=rate of transport (rate of transport of compound in the receiver compartment), C0=initial concentration in the donor compartment, A=surface area of the effective filter membrane.

Human LBAT = molecular target: T1, Human LBAT (Homo sapiens, UniProt Q14973); assay: LBAT (h/m) assay, human LBAT-overexpressing cells, 3H-taurocholic acid uptake; type: cell-based; settings: 0.3 μM 3H-taurocholic acid and 7.5 μM cold taurocholic acid, 20 minutes, read-out: hLBAT IC50
T1 construct: expressed in transfected cells; kept under Geneticin selection
T1 sequence (Q14973 1-349): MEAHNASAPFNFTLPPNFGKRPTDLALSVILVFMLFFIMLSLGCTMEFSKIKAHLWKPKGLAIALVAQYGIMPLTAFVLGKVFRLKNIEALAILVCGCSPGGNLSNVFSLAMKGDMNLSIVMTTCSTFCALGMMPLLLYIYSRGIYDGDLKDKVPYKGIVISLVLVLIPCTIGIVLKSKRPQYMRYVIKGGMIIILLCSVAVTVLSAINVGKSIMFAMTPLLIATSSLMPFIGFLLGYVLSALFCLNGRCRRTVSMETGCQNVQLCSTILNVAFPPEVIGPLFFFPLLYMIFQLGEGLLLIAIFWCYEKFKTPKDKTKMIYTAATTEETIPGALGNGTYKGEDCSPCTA
Protocol: LBAT (h/m) Assay Protocol
20,000 cells (Human or Mouse LBAT-overexpressing cells) were seeded in 96-wells plate (Corning CLS3809) in 100 μL MEM-alpha medium (Gibco 12571-063) supplemented with 10% FBS (Gibco 10438026) containing Geneticin (Gibco 10131-027) (1 mg/mL) and incubated at 37° C. in 5% CO2 for 24 hours. After incubation, media was decanted from the wells and cells were washed two times with 300 μL of basal MEM-alpha medium (FBS-free). After decanting basal MEM-alpha medium each time, plates were tapped against paper towel to ensure maximum removal of residual media.
For human LBAT, incubation mix was prepared by adding test inhibitor dilutions (3-fold serial dilution in DMSO (Sigma D2650), 10 points) in MEM-alpha (without FBS) containing 0.3 μM 3H-taurocholic acid (ARC ART-1368) and 7.5 μM cold taurocholic acid (Sigma T4009) (maintaining 0.2% final DMSO concentration). For mouse LBAT, incubation mix was prepared by adding test inhibitor dilutions (3-fold serial dilution in DMSO, 10 points) in MEM-alpha (without FBS) containing 0.3 μM 3H-taurocholic acid and 25 μM cold taurocholic acid maintaining 0.2% final DMSO concentration).
50 μL of incubation mix containing test inhibitors was then added to the wells (in duplicate) and the plates were incubated for 20 minutes in a CO2 incubator at 37° C. After incubation, the reaction was stopped by keeping the plates on ice water mix for 2-3 minutes and then the incubation mix was aspirated completely from the wells. The wells were washed two times with 250 μL of chilled unlabelled 1 mM taurocholic acid dissolved in HEPES (Gibco 15630080)-buffered (10 mM) HBSS (Gibco 14175079) (pH 7.4). The plates were tapped against a paper towel after every wash to ensure maximum removal of blocking buffer.
100 μL of MicroScint-20 (PerkinElmer 6013621) was added to the wells and kept overnight at room temperature before reading the plates in TopCount NXT™ Microplate Scintillation and Luminescence Counter from PerkinElmer under 3H Test protocol (set at 120 seconds reading time per well, with normal plate orientation).
Preparation of Test Compound Dilutions
All test compounds were provided in powder form at room temperature. 10 mM DMSO stocks of the test compounds were prepared, aliquoted and stored at −20° C. From the 10 mM DMSO stock of the compounds, a 3-fold serial dilution in DMSO was prepared to get a total of 10 dilutions of the test compounds. 0.5 μL of this dilution in DMSO was added to 250 μL of FBS-free basal media containing 3H-taurocholic acid and cold taurocholic acid to prepare the incubation mixture.

Compound | Papp A→B at 120 min, 10 μM [1] | Papp B→A at 120 min, 10 μM [1] | IC50 (Human LBAT)
CCCCC1CN(c2ccccc2)c2cc(SC)c(OCC(C)(C)C(=O)O)cc2S(=O)(=O)N1C (single isomer, unassigned) [2, enantiomer 2] | 13.2 ×10⁻⁶ cm/s | 15.2 ×10⁻⁶ cm/s | 2.3 nM
CCCCC1CN(c2ccccc2)c2cc(SC)c(OCC3(C(=O)O)CC3)cc2S(=O)(=O)N1C (single isomer, unassigned) [4, enantiomer 2] | 18.8 ×10⁻⁶ cm/s | 13 ×10⁻⁶ cm/s | 7.4 nM
CCCCC1CN(c2ccccc2)c2cc(SCC)c(OCC(C)(C)C(=O)O)cc2S(=O)(=O)N1C (single isomer, unassigned) [6, enantiomer 2] | 8.6 ×10⁻⁶ cm/s | 6.5 ×10⁻⁶ cm/s | 6.2 nM
CCCCC1CN(c2ccccc2)c2cc(SCC)c(OCC3(C(=O)O)CC3)cc2S(=O)(=O)N1C (single isomer, unassigned) [8, enantiomer 1] | 15.8 ×10⁻⁶ cm/s | 5 ×10⁻⁶ cm/s | 5 nM
CCCCC1CN(c2ccccc2)c2cc(SC)c(OCC(C)(OC)C(=O)O)cc2S(=O)(=O)N1C (single isomer, unassigned) [24, diastereomer 1] | – | – | 8.4 nM
CCCCC1CN(c2ccccc2)c2cc(SC)c(OCC(C)(OC)C(=O)O)cc2S(=O)(=O)N1C (single isomer, unassigned) [24, diastereomer 2] | – | – | 16 nM
CCCCC1CN(c2ccccc2)c2cc(SC)c(OCC(OC)C(=O)O)cc2S(=O)(=O)N1C (single isomer, unassigned) [32, diastereomer 1] | 5.2 ×10⁻⁶ cm/s | 15.9 ×10⁻⁶ cm/s | 22 nM
CCCCC1CN(c2ccccc2)c2cc(SC)c(OCC(C)(OC)C(=O)O)cc2S(=O)(=O)N1C (single isomer, unassigned) [Example 23, 3-((3-Butyl-2-methyl-7-(methylthio)-1,1-dioxido-5-phenyl-2,3,4,5-tetrahydro-1,2,5-benzothiadiazepin-8-yl)oxy)-2-methoxy-2-methylpropanoic acid] | 10.6 ×10⁻⁶ cm/s | 30.2 ×10⁻⁶ cm/s | 14 nM
CCCCC1CN(c2ccccc2)c2cc(SC)c(OCC3(C(=O)O)CC3)cc2S(=O)(=O)N1C (centres unmarked) [Example 3, 1-(((3-Butyl-2-methyl-7-(methylthio)-1,1-dioxido-5-phenyl-2,3,4,5-tetrahydro-1,2,5-benzothiadiazepin-8-yl)oxy)methyl)cyclopropane-1-carboxylic acid] | 20.8 ×10⁻⁶ cm/s | 12.9 ×10⁻⁶ cm/s | 13 nM
CCCCC1CN(c2ccccc2)c2cc(SCC)c(OCC(C)(C)C(=O)O)cc2S(=O)(=O)N1C (centres unmarked) [Example 5, 3-((3-Butyl-7-(ethylthio)-2-methyl-1,1-dioxido-5-phenyl-2,3,4,5-tetrahydro-1,2,5-benzothiadiazepin-8-yl)oxy)-2,2-dimethylpropanoic acid] | 9.4 ×10⁻⁶ cm/s | 7.2 ×10⁻⁶ cm/s | 8.9 nM
CCCCC1CN(c2ccccc2)c2cc(SCC)c(OCC3(C(=O)O)CC3)cc2S(=O)(=O)N1C (centres unmarked) [Example 7, 1-(((3-Butyl-7-(ethylthio)-2-methyl-1,1-dioxido-5-phenyl-2,3,4,5-tetrahydro-1,2,5-benzothiadiazepin-8-yl)oxy)methyl)cyclopropane-1-carboxylic acid] | 8.1 ×10⁻⁶ cm/s | 3.8 ×10⁻⁶ cm/s | 25 nM
CCCCC1CN(c2ccc(F)cc2)c2cc(SC)c(OCC(C)(C)C(=O)O)cc2S(=O)(=O)N1C (centres unmarked) [Example 13, 3-((3-butyl-5-(4-fluorophenyl)-2-methyl-7-(methylthio)-1,1-dioxido-2,3,4,5-tetrahydro-1,2,5-benzothiadiazepin-8-yl)oxy)-2,2-dimethylpropanoic acid] | 10.8 ×10⁻⁶ cm/s | 8.6 ×10⁻⁶ cm/s | 3.3 nM
CCCCC1CN(c2ccccc2)c2cc(SC)c(OCC(C)(OC)C(=O)O)cc2S(=O)(=O)N1C (centres unmarked) [Example 22, 3-((3-Butyl-2-methyl-7-(methylthio)-1,1-dioxido-5-phenyl-2,3,4,5-tetrahydro-1,2,5-benzothiadiazepin-8-yl)oxy)-2-methoxy-2-methylpropanoic acid] | 11.7 ×10⁻⁶ cm/s | 21.5 ×10⁻⁶ cm/s | 28 nM
CCCCC1CN(c2ccc(F)cc2)c2cc(SCC)c(OCC(O)C(=O)O)cc2S(=O)(=O)N1C (centres unmarked) [Example 33, 3-((3-butyl-7-(ethylthio)-5-(4-fluorophenyl)-2-methyl-1,1-dioxido-2,3,4,5-tetrahydro-1,2,5-benzothiadiazepin-8-yl)oxy)-2-hydroxypropanoic acid] | 2.2 ×10⁻⁶ cm/s | 4.3 ×10⁻⁶ cm/s | 6 nM
